The values below come from paper PMC6609550, “Blockade of the forward Na^+/Ca^2+ exchanger suppresses the growth of glioblastoma cells through Ca^2+‐mediated cell death” (British Journal of Pharmacology, 2019).

In general, IC50 refers to the concentration that inhibits the measured activity by half.

What all share (type): cell-based, Human
For one experiment, the system named is U87 cells. Nature of the experiment: Cell cycle assay (PI staining, flow cytometry) of U87 cells. The note with it: bepridil 25 μM 6–24 hr, CB‐DMB 3.5 μM 6–24 hr, KB‐R7943 25 μM 18 hr, BAPTA‐AM 10 μM 18 hr, CC‐930 10 μM, PD169316 10 μM 18 hr. Here is the method:
U87 cells were seeded in six‐well plates (Corning, Corning, NY, USA) with 1 × 10^6 cells per well and treated with NCX blockers, BAPTA‐AM, or MAPK inhibitors. Drug treatment was performed by the person who is blinded to the experimental groups. After treatment, cells were harvested in 15‐ml tubes and washed with cold sterile PBS. After being centrifuged, cells were fixed with 70% ethanol […] at 4°C for at least 1 hr. For propidium iodide (PI) staining, cells were washed one time with PBS and then were treated with ribonuclease A (RNase; 100 μg·ml^−1) for 30 min. PI (10 μg·ml^−1) was added, and stained cells were kept in the dark at 4°C until analysis. The number of cells analysed for each sample was 10,000 events. FACS analysis was performed using the Coulter CytoFlexS flow cytometer (Beckman Coulter, CA, USA), and the percentage of cells in the G0/G1, S, and G2/M phases was determined using cell cycle analysis software, ModFit LT 5.0 (Verity Software House, Topsham, ME, USA). For the apoptosis assay, cells were harvested and washed twice with cold PBS and resuspended at a density of 1 × 10^6 cells·ml^−1 in 100 μl of binding buffer containing 5 μl of Annexin V–FITC and 5 μl of PI working solution (100 μg·ml^−1). After incubation at room temperature for 15 min in the dark, 400 μl of binding buffer was added to each sample. Apoptosis was analysed by Coulter CytoFlexS flow cytometer (Beckman Coulter) for at least 10,000 events, and data were analysed with the software, CyExpert 2.0 (Beckman Coulter).

A further experiment concerns reverse NCX. Briefly: Whole-cell patch-clamp recording of reverse-mode NCX currents in U87 cells. The note with it: reverse NCX current measured at +50 mV, mean ± SEM, n = 4, read-out: IC50, blocking reverse NCX (currents). Here is the method:
(§1) Whole‐cell patch‐clamp recording was performed using a Multiclamp 700B amplifier (Molecular Devices, Foster City, CA, USA) at room temperature. Voltage protocols were provided and current recorded via a DigiData‐1550B interface (Molecular Devices) controlled by pClamp 10 Software (Molecular Devices, RRID:SCR_011323). […] Internal solution consisted of (in mM): 120 CsCl, 20 NaCl, 2 MgCl2, 13 CaCl2, 2 Na2ATP, 20 BAPTA, and 10 HEPES at a pH 7.2. […] Series resistance was compensated by 75–85%. Linear leak and residual capacitance currents were subtracted online using a P/4 protocol of the pClamp 10. For the recording of the membrane currents related to the NCX, cells were held at −50 mV and depolarized to +60 mV, and then a voltage ramp starting from +60 to −120 mV was applied for 1,000 ms before returning back to −50 mV. The reverse and forward NCX currents were measured at +50 and −110 mV holding potentials respectively (Molinaro et al., 2008; Rahman, Inman, Kiss, & Janssen, 2012; Song, Chen, & Yu, 2014). Data were filtered at 3 KHz and digitized at sampling rates of 20 KHz. For drug application, cells were perfused with a VC‐6 Six Channel Perfusion Valve Control Systems (Warner Instruments, Greenwich, CT, USA) connected to a gravity‐fed perfusion systems.
(§2) Data are expressed as mean ± SEM and analysed by Prism 7 software, La Jolla, CA (GraphPad Prism, RRID:SCR_002798). The data and statistical analysis comply with the recommendations of the British Journal of Pharmacology on experimental design and analysis in pharmacology. Concentrations of the NCX blockers (IC50) exerting half‐maximal inhibition of NCX currents were obtained by fitting the concentration–response with the equation: I/I0*100%=Bottom+Top−Bottom/1+10^((^Log^IC50−C)*n) , where I 0 and I are current amplitudes measured in control and in the presence of NCX blockers, C is the logarithm of concentration, and n is the Hill coefficient. The statistical difference between two independent groups was analysed by Student's parametric unpaired t test. And the original data of more than two groups were assessed by the parametric one‐way ANOVA followed by a Tukey's post hoc test. The data for cell viability and Western blot were usually normalized to the control group, and were thus analysed by the non‐parametric Kruskal–Wallis test followed by a Dunn's post hoc test. Differences were considered to be significant when P < .05. Post hoc tests were conducted when the F value achieved the necessary level (P < .05) and there was no significant variance inhomogeneity.
(§3) We characterized the membrane currents associated with NCX activity in glioblastoma cells using whole‐cell patch‐clamp recording. […] The NCX current in its reverse mode (Ca^2+ entry) was measured at +50, and the forward‐mode current (Ca^2+ exit) was measured at −110 mV. The Ni^2+ (10 mM) was employed to inhibit and identify the NCX currents in its either reverse or forward mode as previously reported (Maack, Ganesan, Sidor, & O'Rourke, 2005).
(In general: In patch-clamp work, channel activity is measured electrically.)

Another experiment deals with SF188 cells. Nature of the experiment: Cell viability assay (Cell Counting Kit-8), SF188. The note with it: for Effect on viability of paediatric glioblastoma cell line SF188 (in words): 0–100 μM; for Effect on viability of paediatric glioblastoma cell line SF188 (in words) / IC50: 72 hr; for IC50: CCK-8, mean ± SEM. As for the experimental part: Cell viability was determined by using a Cell Counting Kit‐8 (Dojindo, Japan). Briefly, cells were harvested from flasks and plated in 96‐well cell culture plates at 5 × 10^3 per well and cultured overnight. […] Control cells were treated with cell culture medium and measured at the same time point as treatment groups. CCK‐8 solution (10 μl) was added to each well of the 96‐well plates, and the cultures were incubated for 30 min at 37°C. Absorbance at 450 nm was measured using an automatic microplate reader (Molecular Devices, San Jose, CA, USA).
Figure 2 Effect of the Na^+/Ca^2+ exchanger (NCX) blockers on viability of human glioblastoma cell lines. (a, b) Viability of adult glioblastoma cell lines (U87 and U251) after exposure to NCX blockers bepridil, KB‐R7943, SEA0400, SN‐6, or YM244769 at 0–100 μM for 72 hr. n = 5 independent tests per group. (c) Viability of paediatric glioblastoma cell line SF188 after 72‐hr incubation with the same NCX blockers at 0–100 μM. n = 5 independent tests per group. (d) For U87, U251, and SF188 cell lines, concentration of the NCX blockers required to produce half maximal inhibition (IC50: μM, mean ± SEM) of cell viability.

A further experiment has as its system forward NCX. Nature of the experiment: Whole-cell patch-clamp recording of forward-mode NCX currents in U87 cells. To be noted: forward NCX current measured at −110 mV, mean ± SEM, n = 4, read-out: IC50, blocking forward NCX (currents). Here is the method:
as §1, §2, §3

For `CC(C)COCC(CN(Cc1ccccc1)c1ccccc1)N1CCCC1` (centres unmarked) [Bepridil, N‐benzyl‐N‐(3‐isobutoxy‐2‐pyrrolidin‐1‐yl‐propyl)aniline], the “Effect on cell cycle distribution, compound alone” value with U87 cells is “reduced the cell fraction in S phase and increased cells in G0/G1 phase in a time‐dependent manner”. For the same molecule, the IC50 in the experiment on reverse NCX was found to be 15.6 ± 1.1 µM; in the experiment with SF188 cells (Homo sapiens, SF-188), 12.9 ± 1 µM; in the experiment on forward NCX, 19.1 ± 1.2 µM. Further, the “Effect on viability of paediatric glioblastoma cell line SF188 (in words)” value in the experiment with SF188 cells was “suppressed by bepridil and KB‐R7943 in a dose‐dependent manner”. Besides, the “Effect on growth (viability) of SF188 cells” value in the experiment with SF188 cells (25 μM, 48 hr) was “markedly suppressed growth”.
With `CS(=O)(=O)O.N=C(N)SCCc1ccc(OCc2ccc([N+](=O)[O-])cc2)cc1` [KB‐R7943, 2‐[4‐[(4‐nitrophenyl)methoxy]phenyl]ethyl ester carbamimidothioic acid methanesulfonate], the “Effect on cell cycle distribution, compound alone” value in the experiment on U87 cells was “caused G0/G1 arrest and apoptosis”. In addition, the IC50 stood at 14.3 ± 1.2 µM with reverse NCX, 17.3 ± 1 µM with SF188 cells and 32.3 ± 1.3 µM with forward NCX. The “Effect on viability of paediatric glioblastoma cell line SF188 (in words)” value with SF188 cells is “suppressed by bepridil and KB‐R7943 in a dose‐dependent manner”.
